PubChem BioAssay (NCI)
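GI50 = concentration required for 50% inhibition of growth. At the TGI there is no net growth.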

Legend:
Experiment in all cases: DTP human tumour cell line panel, 384-well format
[1] = test system: 786-0 renal
[2] = test system: A498 renal
[3] = test system: A549 NSCLC
[4] = test system: ACHN renal
[5] = test system: BT-549 breast
[6] = test system: CAKI-1 renal
[7] = test system: COLO 205 colon
[8] = test system: DU-145 prostate
[9] = test system: EKVX NSCLC
[10] = test system: HCT-116 colon
[11] = test system: HCT-15 colon
[12] = test system: HL-60(TB) leukemia
[13] = test system: HOP-62 NSCLC
[14] = test system: HOP-92 NSCLC
[15] = test system: HS 578T breast
[16] = test system: HT29 colon
[17] = test system: IGROV1 ovarian
[18] = test system: K-562 leukemia
[19] = test system: KM12 colon
[20] = test system: M14 melanoma
[21] = test system: MALME-3M melanoma
[22] = test system: MCF7 breast
[23] = test system: MDA-MB-231 breast
[24] = test system: MDA-MB-435 melanoma
[25] = test system: MDA-MB-468 breast
[26] = test system: MOLT-4 leukemia
[27] = test system: NCI-H226 lung
[28] = test system: NCI-H23 lung
[29] = test system: NCI-H322M lung
[30] = test system: NCI-H460 NSCLC
[31] = test system: NCI-H522 lung
[32] = test system: OVCAR-3 ovarian
[33] = test system: OVCAR-4 ovarian
[34] = test system: OVCAR-5 ovarian
[35] = test system: OVCAR-8 ovarian
[36] = test system: PC-3 prostate
[37] = test system: RXF 393 renal
[38] = test system: SF-268 CNS
[39] = test system: SF-295 CNS
[40] = test system: SF-539 CNS
[41] = test system: SK-MEL-2 melanoma
[42] = test system: SK-MEL-28 melanoma
[43] = test system: SK-MEL-5 melanoma
[44] = test system: SK-OV-3 ovarian
[45] = test system: SN12C renal
[46] = test system: SNB-19 CNS
[47] = test system: SNB-75 CNS
[48] = test system: SR leukemia
[49] = test system: SW-620 colon
[50] = test system: T-47D breast
[51] = test system: TK-10 renal
[52] = test system: U251 glioblastoma
[53] = test system: UACC-257 melanoma
[54] = test system: UACC-62 melanoma
[55] = test system: UO-31 renal

Compound: C#CC[C@H](c1nc2cc(Cl)ccc2c(=O)n1Nc1ccccc1)N(CCCN)C(=O)c1cccc(Cl)c1F
- GI50 [1]: 678 nM
- TGI [1]: 1960 nM
- GI50 [2]: 553 nM
- TGI [2]: 1820 nM
- GI50 [3]: 62.5 nM
- TGI [3]: 1880 nM
- GI50 [4]: 1110 nM
- TGI [4]: 2320 nM
- GI50 [5]: 166 nM
- TGI [5]: 1080 nM
- GI50 [6]: 795 nM
- TGI [6]: 2030 nM
- GI50 [7]: 30.3 nM
- TGI [7]: 82.9 nM
- GI50 [8]: 58.9 nM
- TGI [8]: 1060 nM
- GI50 [9]: 89.6 nM
- TGI [9]: 1460 nM
- GI50 [10]: 36.5 nM
- TGI [10]: 1170 nM
- GI50 [11]: 1500 nM
- TGI [11]: 2850 nM
- GI50 [12]: 19.9 nM
- TGI [12]: 34.6 nM
- GI50 [13]: 354 nM
- TGI [13]: 1540 nM
- GI50 [14]: 674 nM
- TGI [14]: 2140 nM
- GI50 [15]: 17.8 nM
- TGI [15]: 44.8 nM
- GI50 [16]: 36.1 nM
- TGI [16]: 173 nM
- GI50 [17]: 1030 nM
- TGI [17]: 2220 nM
- GI50 [18]: 44.9 nM
- TGI [18]: 219 nM
- GI50 [19]: 56.8 nM
- TGI [19]: 670 nM
- GI50 [20]: 363 nM
- TGI [20]: 1440 nM
- GI50 [21]: 189 nM
- TGI [21]: 1760 nM
- GI50 [22]: 23.1 nM
- TGI [22]: 1110 nM
- GI50 [23]: 63 nM
- TGI [23]: 1700 nM
- GI50 [24]: 17.8 nM
- TGI [24]: 35.9 nM
- GI50 [25]: 18.3 nM
- TGI [25]: 39.6 nM
- GI50 [26]: 19.4 nM
- TGI [26]: 34.4 nM
- GI50 [27]: 1110 nM
- TGI [27]: 2310 nM
- GI50 [28]: 73.7 nM
- TGI [28]: 799 nM
- GI50 [29]: 52.8 nM
- TGI [29]: 1520 nM
- GI50 [30]: 48 nM
- TGI [30]: 1120 nM
- GI50 [31]: 20 nM
- TGI [31]: 40.2 nM
- GI50 [32]: 30.2 nM
- TGI [32]: 277 nM
- GI50 [33]: 521 nM
- TGI [33]: 2090 nM
- GI50 [34]: 468 nM
- TGI [34]: 1860 nM
- GI50 [35]: 189 nM
- TGI [35]: 1220 nM
- GI50 [36]: 57 nM
- TGI [36]: 1590 nM
- GI50 [37]: 41 nM
- TGI [37]: 288 nM
- GI50 [38]: 48.6 nM
- TGI [38]: 1450 nM
- GI50 [39]: 227 nM
- TGI [39]: 650 nM
- GI50 [40]: 27.3 nM
- TGI [40]: 75.1 nM
- GI50 [41]: 21.6 nM
- TGI [41]: 43.5 nM
- GI50 [42]: 1290 nM
- TGI [42]: 2560 nM
- GI50 [43]: 77.4 nM
- TGI [43]: 737 nM
- GI50 [44]: 29.9 nM
- TGI [44]: 648 nM
- GI50 [45]: 109 nM
- TGI [45]: 1860 nM
- GI50 [46]: 863 nM
- TGI [46]: 2160 nM
- GI50 [47]: 58.9 nM
- TGI [47]: 1530 nM
- GI50 [48]: 18.9 nM
- TGI [48]: 34.3 nM
- GI50 [49]: 65.2 nM
- TGI [49]: 1250 nM
- GI50 [50]: 57.7 nM
- TGI [50]: 1600 nM
- GI50 [51]: 1070 nM
- TGI [51]: 2270 nM
- GI50 [52]: 45 nM
- TGI [52]: 1330 nM
- GI50 [53]: 60.4 nM
- TGI [53]: 1900 nM
- GI50 [54]: 51.7 nM
- TGI [54]: 1440 nM
- GI50 [55]: 1790 nM
- TGI [55]: 3180 nM
